# Laboratory results from PubChem BioAssay AID2060502 (Molecular Pharmacology Branch, DTP, NCI, 2025).
# System: 885724-159-R-J1-PDC complex spheroid viability
# Assay: Anticancer human tumor 885724-159-R-J1-PDC patient-derived pancreatic adenocarcinoma cell line growth inhibition [GQUAD]
# Conditions: for IC50: curve of first compound; for viability, T/C: stronger effect = lower value
# Procedure, shortened: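 Viability of tumor cells grown as complex spheroids with endothelial and stromal cells, exposed to drug combinations. Top concentration at or near clinical Cmax (else 10 microM), diluted in half-log increments.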
# [1] = second compound 0.0316 µM, first compound 0.0316 µM
# [2] = second compound 0.0316 µM, first compound 0.1 µM
# [3] = second compound 0.0316 µM, first compound 0.316 µM
# [4] = second compound 0.0316 µM, first compound 1 µM
# [5] = second compound 0.0316 µM, first compound 3.16 µM
# [6] = second compound 0.0316 µM, first compound 10 µM
# [7] = second compound 0.1 µM, first compound 0.0316 µM
# [8] = second compound 0.1 µM, first compound 0.1 µM
# [9] = second compound 0.1 µM, first compound 0.316 µM
# [10] = second compound 0.1 µM, first compound 1 µM
# [11] = second compound 0.1 µM, first compound 3.16 µM
# [12] = second compound 0.1 µM, first compound 10 µM
# [13] = second compound 0.316 µM, first compound 0.0316 µM
# [14] = second compound 0.316 µM, first compound 0.1 µM
# [15] = second compound 0.316 µM, first compound 0.316 µM
# [16] = second compound 0.316 µM, first compound 1 µM
# [17] = second compound 0.316 µM, first compound 3.16 µM
# [18] = second compound 0.316 µM, first compound 10 µM
# [19] = second compound 1 µM, first compound 0.0316 µM
# [20] = second compound 1 µM, first compound 0.1 µM
# [21] = second compound 1 µM, first compound 0.316 µM
# [22] = second compound 1 µM, first compound 1 µM
# [23] = second compound 1 µM, first compound 3.16 µM
# [24] = second compound 1 µM, first compound 10 µM
# [25] = second compound 3.16 µM, first compound 0.0316 µM
# [26] = second compound 3.16 µM, first compound 0.1 µM
# [27] = second compound 3.16 µM, first compound 0.316 µM
# [28] = second compound 3.16 µM, first compound 1 µM
# [29] = second compound 3.16 µM, first compound 3.16 µM
# [30] = second compound 3.16 µM, first compound 10 µM
# [31] = second compound 10 µM, first compound 0.0316 µM
# [32] = second compound 10 µM, first compound 0.1 µM
# [33] = second compound 10 µM, first compound 0.316 µM
# [34] = second compound 10 µM, first compound 1 µM
# [35] = second compound 10 µM, first compound 3.16 µM
# [36] = second compound 10 µM, first compound 10 µM
# 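Further: spheroids exposed to agents for seven days before readout.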
# 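Wherever viability, T/C is given: percent of vehicle control viability where 100% = DMSO wells.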
compound,measurement,setting,value
CCCS(=O)(=O)Nc1ccc(F)c(C(=O)c2c[nH]c3ncc(-c4ccc(Cl)cc4)cc23)c1F + CN(C)c1ccc(Nc2c3ccc(NC(=O)CCN4CCCC4)cc3nc3cc(NC(=O)CCN4CCCC4)ccc23)cc1,IC50,second compound 0.0316 µM,> 10 µM
same,IC50,second compound 0.1 µM,> 10 µM
same,IC50,second compound 0.316 µM,> 10 µM
same,IC50,second compound 1 µM,> 10 µM
same,IC50,second compound 3.16 µM,9.74 µM
same,IC50,second compound 10 µM,5.73 µM
same,"viability, T/C",[1],112%
same,"viability, T/C",[2],114%
same,"viability, T/C",[3],116%
same,"viability, T/C",[4],130%
same,"viability, T/C",[5],139%
same,"viability, T/C",[6],84.7%
same,"viability, T/C",[7],99.8%
same,"viability, T/C",[8],98.1%
same,"viability, T/C",[9],121%
same,"viability, T/C",[10],129%
same,"viability, T/C",[11],133%
same,"viability, T/C",[12],65.5%
same,"viability, T/C",[13],97%
same,"viability, T/C",[14],99.3%
same,"viability, T/C",[15],108%
same,"viability, T/C",[16],107%
same,"viability, T/C",[17],146%
same,"viability, T/C",[18],66%
same,"viability, T/C",[19],80.4%
same,"viability, T/C",[20],82%
same,"viability, T/C",[21],109%
same,"viability, T/C",[22],118%
same,"viability, T/C",[23],134%
same,"viability, T/C",[24],64.4%
same,"viability, T/C",[25],81%
same,"viability, T/C",[26],74.2%
same,"viability, T/C",[27],101%
same,"viability, T/C",[28],101%
same,"viability, T/C",[29],114%
same,"viability, T/C",[30],48.9%
same,"viability, T/C",[31],80.2%
same,"viability, T/C",[32],73.1%
same,"viability, T/C",[33],82.1%
same,"viability, T/C",[34],99.5%
same,"viability, T/C",[35],93.9%
same,"viability, T/C",[36],16.5%
Cc1[nH]c2ccccc2c1CCNCc1ccc(/C=C/C(=O)NO)cc1 + CN(C)c1ccc(Nc2c3ccc(NC(=O)CCN4CCCC4)cc3nc3cc(NC(=O)CCN4CCCC4)ccc23)cc1,IC50,second compound 0.0316 µM,> 0.316 µM
same,IC50,second compound 0.1 µM,> 0.316 µM
same,IC50,second compound 0.316 µM,0.286 µM
same,IC50,second compound 1 µM,0.214 µM
same,IC50,second compound 3.16 µM,0.0929 µM
same,IC50,second compound 10 µM,0.152 µM
same,"viability, T/C","second compound 0.0316 µM, first compound 0.000999 µM",103%
same,"viability, T/C","second compound 0.0316 µM, first compound 0.00316 µM",98.3%
same,"viability, T/C","second compound 0.0316 µM, first compound 0.00999 µM",93.1%
same,"viability, T/C",[1],96.9%
same,"viability, T/C","second compound 0.0316 µM, first compound 0.0999 µM",124%
same,"viability, T/C",[3],60.1%
same,"viability, T/C","second compound 0.1 µM, first compound 0.000999 µM",99.8%
same,"viability, T/C","second compound 0.1 µM, first compound 0.00316 µM",91.7%
same,"viability, T/C","second compound 0.1 µM, first compound 0.00999 µM",95%
same,"viability, T/C",[7],125%
same,"viability, T/C","second compound 0.1 µM, first compound 0.0999 µM",105%
same,"viability, T/C",[9],54.1%
same,"viability, T/C","second compound 0.316 µM, first compound 0.000999 µM",84.7%
same,"viability, T/C","second compound 0.316 µM, first compound 0.00316 µM",94%
same,"viability, T/C","second compound 0.316 µM, first compound 0.00999 µM",95.3%
same,"viability, T/C",[13],84.6%
same,"viability, T/C","second compound 0.316 µM, first compound 0.0999 µM",112%
same,"viability, T/C",[15],45.7%
same,"viability, T/C","second compound 1 µM, first compound 0.000999 µM",90.3%
same,"viability, T/C","second compound 1 µM, first compound 0.00316 µM",75.6%
same,"viability, T/C","second compound 1 µM, first compound 0.00999 µM",75.5%
same,"viability, T/C",[19],77.5%
same,"viability, T/C","second compound 1 µM, first compound 0.0999 µM",69.8%
same,"viability, T/C",[21],40.3%
same,"viability, T/C","second compound 3.16 µM, first compound 0.000999 µM",65.2%
same,"viability, T/C","second compound 3.16 µM, first compound 0.00316 µM",81.4%
same,"viability, T/C","second compound 3.16 µM, first compound 0.00999 µM",82.1%
same,"viability, T/C",[25],73.1%
same,"viability, T/C","second compound 3.16 µM, first compound 0.0999 µM",48.5%
same,"viability, T/C",[27],40.1%
same,"viability, T/C","second compound 10 µM, first compound 0.000999 µM",65%
same,"viability, T/C","second compound 10 µM, first compound 0.00316 µM",58.3%
same,"viability, T/C","second compound 10 µM, first compound 0.00999 µM",59.6%
same,"viability, T/C",[31],55.6%
same,"viability, T/C","second compound 10 µM, first compound 0.0999 µM",69.3%
same,"viability, T/C",[33],30%
O=c1[nH]cc(F)c(=O)[nH]1 + CN(C)c1ccc(Nc2c3ccc(NC(=O)CCN4CCCC4)cc3nc3cc(NC(=O)CCN4CCCC4)ccc23)cc1,IC50,second compound 0.0316 µM,> 10 µM
same,IC50,second compound 0.1 µM,> 10 µM
same,IC50,second compound 0.316 µM,> 10 µM
same,IC50,second compound 1 µM,> 10 µM
same,IC50,second compound 3.16 µM,> 10 µM
same,IC50,second compound 10 µM,> 10 µM
same,"viability, T/C",[1],105%
same,"viability, T/C",[2],103%
same,"viability, T/C",[3],98.7%
same,"viability, T/C",[4],100%
same,"viability, T/C",[5],78%
same,"viability, T/C",[6],85.8%
same,"viability, T/C",[7],90.8%
same,"viability, T/C",[8],103%
same,"viability, T/C",[9],101%
same,"viability, T/C",[10],95.8%
same,"viability, T/C",[11],86.4%
same,"viability, T/C",[12],97.2%
same,"viability, T/C",[13],89%
same,"viability, T/C",[14],88.1%
same,"viability, T/C",[15],87.7%
same,"viability, T/C",[16],79.7%
same,"viability, T/C",[17],86.5%
same,"viability, T/C",[18],78.5%
same,"viability, T/C",[19],91.7%
same,"viability, T/C",[20],69.9%
same,"viability, T/C",[21],80.5%
same,"viability, T/C",[22],73.3%
same,"viability, T/C",[23],76.3%
same,"viability, T/C",[24],83.2%
same,"viability, T/C",[25],82.7%
same,"viability, T/C",[26],83.5%
same,"viability, T/C",[27],87.8%
same,"viability, T/C",[28],80.6%
same,"viability, T/C",[29],71.4%
same,"viability, T/C",[30],75.5%
same,"viability, T/C",[31],76%
same,"viability, T/C",[32],80%
same,"viability, T/C",[33],80.6%
same,"viability, T/C",[34],79%
same,"viability, T/C",[35],87.8%
same,"viability, T/C",[36],75%
